Assay [1] has as its system T1, periplasmic L-ASNase (PCH199 L-ASNase, type II).
T1 construct: gene ansB; native, purified from periplasm by osmotic shock (ammonium sulfate, Q-Sepharose, Superdex 200)
In words: Nessler ammonia assay at […] nm, non-linear Michaelis-Menten fit. In kind it is biochemical, Pseudomonas sp. PCH199. Particulars: 0.1-3.0 mM substrate; standard assay 50 mM Tris-HCl pH 8.5, 37 ℃ (temperature of the kinetic run not restated).

The test system is the same in assay [2]. The assay is described as follows: Michaelis-Menten non-linear regression (assay details not told). Type of assay: biochemical, Pseudomonas sp. PCH199. Particulars: 0.02-0.5 mM substrate; assay pH and temperature not stated for L-glutamine.

Molecules are shown by their SMILES.

This is an account of results in PMC9958223, “Biochemical characterization of extremozyme L-asparaginase from Pseudomonas sp. PCH199 for therapeutics” (AMB Express, 2023).

Consider `NC(=O)C[C@H](N)C(=O)O` [L-asparagine], for which the Michaelis constant (Km) in assay [1] stood at 164 ± 9 µM.
With `NC(=O)CC[C@H](N)C(=O)O` [L-glutamine], the Michaelis-Menten constant (Km) in assay [2] is 34 µM.

The Km is the substrate concentration at which the rate is half of its maximum.
